Results published in ChEMBL document CHEMBL4339189, “Dissymmetric pyridyl-substituted 3,5-bis(arylidene)-4-piperidones as anti-hepatoma agents by inhibiting NF-κB pathway activation” (Eur J Med Chem, 2019).
Calls of active or inactive are those of the source. The rule behind the calls is not given here.

Columns and labels:
QGY-7703 [1] = test: Induction of apoptosis in human QGY7703 cells assessed as increase in apoptotic cell population at 2.0 uM incubated for 24 hrs by Annexin V-FITC/propidium iodide staining based flow cytometry relative to control; format: functional
HepG2 [2] = test: Induction of apoptosis in human HepG2 cells xenografted in Balb/c nude mouse assessed as reduction in Bcl-2 protein expression at 1 mg/kg, ip administered every 2 days for 20 days and measured every 2 days by immunohistochemistry; format: functional, organism-based
HepG2 [3] = test: Induction of apoptosis in human HepG2 cells xenografted in Balb/c nude mouse assessed as reduction in Bcl-2 protein expression at 0.1 mg/kg, ip administered every 2 days for 20 days and measured every 2 days by immunohistochemistry; format: functional, organism-based
HepG2 [4] = test: Cytotoxicity against human HepG2 cells assessed as reduction in cell viability incubated for 24 hrs by MTT assay; format: functional, cell-based
SMMC-7721 = test: Induction of apoptosis in human SMMC7721 cells assessed as increase in apoptotic cell population at 2.0 uM incubated for 24 hrs by Annexin V-FITC/propidium iodide staining based flow cytometry relative to control; format: functional
HepG2 [5] = test: Induction of apoptosis in human HepG2 cells assessed as increase in apoptotic cell population at 4.0 uM incubated for 24 hrs by Annexin V-FITC/propidium iodide staining based flow cytometry; format: functional
[6] = Toxicity in Balb/c nude mouse xenografted with human HepG2 cells assessed as increase in body weight at 0.1 to 10 mg/kg, ip administered every 2 days for 20 days and measured every 2 days; format: organism-based; details: in vivo
QGY-7703 [7] = test: Induction of apoptosis in human QGY7703 cells assessed as increase in apoptotic cell population at 4.0 uM incubated for 24 hrs by Annexin V-FITC/propidium iodide staining based flow cytometry; format: functional
L02 = test: Cytotoxicity against human LO2 cells assessed as reduction in cell viability incubated for 24 hrs by MTT assay; format: cell-based; details: L02, 24 h
HepG2 [8] = test: Induction of apoptosis in human HepG2 cells assessed as increase in cleaved caspase-3 expression up to 4 uM after 24 hrs by Western blot analysis; format: functional, cell-based
HepG2 [9] = test: Antitumor activity against human HepG2 cells xenografted in Balb/c nude mouse assessed as induction of incomplete cells at 10 mg/kg, ip administered every 2 days for 20 days and measured every 2 days by H and E staining based assay; format: functional, organism-based
HepG2 [10] = test: Induction of apoptosis in human HepG2 cells assessed as increase in apoptotic cell population at 4.0 uM incubated for 24 hrs by Annexin V-FITC/propidium iodide staining based flow cytometry relative to control; format: functional
[11] = molecular target: T1, NF-kappa-B inhibitor alpha (Mus musculus) (UniProt Q9Z1E3); test: Inhibition of NFkappaB signalling activation in mouse RAW264.7 cells assessed as reduction in LPS-induced IkBalpha phosphorylation at 1 to 4 uM incubated for 2 hrs after pre-incubation with LPS for 15 mins by Western blot analysis; format: cell-based
T1 sequence (whole entry): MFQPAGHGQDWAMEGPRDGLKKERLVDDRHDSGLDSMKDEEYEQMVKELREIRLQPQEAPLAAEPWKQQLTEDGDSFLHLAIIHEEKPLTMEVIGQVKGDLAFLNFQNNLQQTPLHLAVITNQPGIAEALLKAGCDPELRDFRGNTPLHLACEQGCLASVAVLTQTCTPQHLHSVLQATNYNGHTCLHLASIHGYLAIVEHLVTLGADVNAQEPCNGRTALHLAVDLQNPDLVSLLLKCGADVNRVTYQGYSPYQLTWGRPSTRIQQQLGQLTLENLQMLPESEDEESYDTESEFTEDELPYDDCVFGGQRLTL

RAW264.7 [12] = test: Antiinflammatory activity in mouse RAW264.7 cells assessed as inhibition of LPS-stimulated IL-6 production 6.0 uM preincubated for 2 hrs followed by LPS stimulaton measured after 22 hrs by ELISA relative to control; format: functional
HepG2 [13] = test: Induction of apoptosis in human HepG2 cells xenografted in Balb/c nude mouse assessed as reduction in Bcl-2 protein expression at 10 mg/kg, ip administered every 2 days for 20 days and measured every 2 days by immunohistochemistry; format: functional, organism-based
QGY-7703 [14] = test: Cytotoxicity against human QGY7703 cells assessed as reduction in cell viability incubated for 24 hrs by MTT assay; format: functional, cell-based
[15] = Cytotoxicity against human HHL5 cells assessed as reduction in cell viability incubated for 24 hrs by MTT assay; format: cell-based; details: HHL-5, 24 h
HepG2 [16] = test: Antitumor activity against human HepG2 cells xenografted in Balb/c nude mouse assessed as effect on tumor volume level at 1 mg/kg, ip administered every 2 days for 20 days and measured every 2 days; format: functional, organism-based
[17] = molecular target: Transcription factor p65 (Mus musculus) (UniProt Q04207); test: Inhibition of NFkappaB activation in mouse RAW264.7 cells assessed as reduction in LPS-induced p65 phosphorylation at 1 to 4 uM incubated for 2 hrs after pre-incubation with LPS for 15 mins by Western blot analysis; format: cell-based
Transcription factor p65 (Mus musculus), sequence (Q04207 whole entry): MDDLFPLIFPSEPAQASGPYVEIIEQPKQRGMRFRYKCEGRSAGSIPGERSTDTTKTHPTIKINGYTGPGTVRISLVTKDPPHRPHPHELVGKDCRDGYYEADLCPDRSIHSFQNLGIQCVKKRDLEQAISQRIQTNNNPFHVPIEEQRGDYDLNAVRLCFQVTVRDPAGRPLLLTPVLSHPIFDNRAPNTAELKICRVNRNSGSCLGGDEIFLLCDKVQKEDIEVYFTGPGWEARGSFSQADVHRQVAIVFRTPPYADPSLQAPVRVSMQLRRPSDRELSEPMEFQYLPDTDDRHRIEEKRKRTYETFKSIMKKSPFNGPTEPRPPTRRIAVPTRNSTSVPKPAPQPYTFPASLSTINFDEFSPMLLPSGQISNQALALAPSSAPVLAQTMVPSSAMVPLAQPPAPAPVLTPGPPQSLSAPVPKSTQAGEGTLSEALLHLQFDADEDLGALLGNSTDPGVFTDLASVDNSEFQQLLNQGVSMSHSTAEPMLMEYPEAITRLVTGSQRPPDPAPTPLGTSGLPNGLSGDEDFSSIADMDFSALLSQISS

RAW264.7 [18] = test: Antiinflammatory activity in mouse RAW264.7 cells assessed as inhibition of LPS-stimulated TNF-alpha production at 6.0 uM preincubated for 2 hrs followed by LPS stimulaton measured after 22 hrs by ELISA relative to control; format: functional
QGY-7703 [19] = test: Induction of apoptosis in human QGY7703 cells assessed as increase in apoptotic cell population at 4.0 uM incubated for 24 hrs by Annexin V-FITC/propidium iodide staining based flow cytometry relative to control; format: functional
[20] = molecular target: Transcription factor p65 (Mus musculus) (UniProt Q04207); test: Inhibition of LPS-induced NFkappaB p65 nuclear translocation in mouse RAW264.7 cells at 4 uM incubated for 2 hrs after pre-incubation with LPS for 15 mins by DAPI staining-based immunofluorescence assay; format: cell-based
RAW264.7 [21] = test: Cytotoxicity against mouse RAW264.7 cells assessed as reduction in cell viability at 6.0 uM incubated for 24 hrs by MTT assay; format: cell-based; details: raw264.7, 24 h
HepG2 [22] = test: Induction of apoptosis in human HepG2 cells assessed as reduction in Bcl-2 expression up to 4 uM after 24 hrs by Western blot analysis; format: functional, cell-based
HepG2 [23] = test: Induction of apoptosis in human HepG2 cells assessed as increase in Bax expression up to 4 uM after 24 hrs by Western blot analysis; format: functional, cell-based
[24] = molecular target: Transcription factor p65 (Homo sapiens) (UniProt Q04206); test: Inhibition of LPS-induced NFkappaB p65 nuclear translocation in human HepG2 cells at 4 uM incubated for 2 hrs after pre-incubation with LPS for 15 mins by DAPI staining-based immunofluorescence assay; format: cell-based
Transcription factor p65 (Homo sapiens), sequence (Q04206 whole entry): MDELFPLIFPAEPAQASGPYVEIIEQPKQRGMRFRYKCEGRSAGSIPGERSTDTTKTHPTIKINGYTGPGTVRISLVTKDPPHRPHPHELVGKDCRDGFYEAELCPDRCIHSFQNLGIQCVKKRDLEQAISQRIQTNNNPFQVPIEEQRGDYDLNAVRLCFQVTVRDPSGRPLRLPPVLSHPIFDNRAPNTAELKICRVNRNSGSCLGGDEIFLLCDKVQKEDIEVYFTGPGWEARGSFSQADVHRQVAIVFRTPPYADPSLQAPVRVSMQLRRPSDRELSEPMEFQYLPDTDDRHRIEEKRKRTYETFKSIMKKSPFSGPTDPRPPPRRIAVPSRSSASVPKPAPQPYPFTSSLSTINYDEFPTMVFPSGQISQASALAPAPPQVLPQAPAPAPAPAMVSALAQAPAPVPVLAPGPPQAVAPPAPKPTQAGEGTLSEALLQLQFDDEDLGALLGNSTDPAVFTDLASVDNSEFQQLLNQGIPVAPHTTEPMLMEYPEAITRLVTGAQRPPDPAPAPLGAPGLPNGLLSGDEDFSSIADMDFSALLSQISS

Mus musculus [25] = test: Antiinflammatory activity in human HepG2 cells xenografted Balb/c nude mouse assessed as reduction in TNFalpha protein expression at 0.1 mg/kg, ip administered every 2 days for 20 days and measured every 2 days by immunohistochemistry; format: functional, organism-based
Mus musculus [26] = test: Antiinflammatory activity in human HepG2 cells xenografted Balb/c nude mouse assessed as reduction in TNFalpha protein expression at 1 mg/kg, ip administered every 2 days for 20 days and measured every 2 days by immunohistochemistry; format: functional, organism-based
[27] = molecular target: Transcription factor p65 (Mus musculus) (UniProt Q04207); test: Inhibition of NFkappaB activation in mouse RAW264.7 cells assessed as reduction in TNFalpha-induced p65 phosphorylation at 1 to 4 uM incubated for 2 hrs after pre-incubation with LPS for 15 mins by Western blot analysis; format: cell-based

## O=C1/C(=C/c2cccnc2)CN(S(=O)(=O)c2ccc(C(F)(F)F)cc2)C/C1=C\c1ccccc1C(F)(F)F
QGY-7703 [1]
  Activity: 58%
HepG2 [2]
  Activity: Active
HepG2 [3]
  Activity: inactive
HepG2 [4]
  Activity: Dose-dependent effect
HepG2 [4]; HepG2, 24 h
  IC50: 1.71 µM
SMMC-7721
  Activity: 40%
HepG2 [5]
  Activity: Dose-dependent effect
[6]
  Activity: Non-Toxic
QGY-7703 [7]
  Activity: Dose-dependent effect
L02
  IC50: 14.3 µM
HepG2 [8]
  Activity: Dose-dependent effect
HepG2 [9]
  Activity: Active
HepG2 [10]
  Activity: >70%
[11]
  inhibition: Dose-dependent effect
RAW264.7 [12]
  inhibition (INH): <=15%
HepG2 [13]
  Activity: Active
QGY-7703 [14]
  Activity: Dose-dependent effect
QGY-7703 [14]; QGY-7703, 24 h
  IC50: 1.5 µM
[15]
  IC50: 15.8 µM
HepG2 [16]
  Activity: inactive
[17]
  inhibition: Dose-dependent effect
RAW264.7 [18]
  inhibition at 6 µM: ≤ 15%
QGY-7703 [19]
  Activity: >70%
[20]
  inhibition: Active
RAW264.7 [21]
  Activity: Non-Toxic
HepG2 [22]
  Activity: Dose-dependent effect
HepG2 [23]
  Activity: Dose-dependent effect
[24]
  inhibition: Active
Mus musculus [25]
  Activity: inactive
Mus musculus [26]
  Activity: Active
[27]
  inhibition: Dose-dependent effect
